In ChEMBL document CHEMBL1765061, “Synthesis of rabdokunmin C analogues and their inhibitory effect on NF-κB activation” (Bioorg Med Chem, 2011) one finds inhibition, Activity and IC50 data, which are given here for 20 molecules.

The test system of one data set is RAW264. As to the kind of experiment: Inhibition of LPS-induced NO production in mouse RAW264 cells after 24 hrs. Format: functional, cell-based.
A short description of data set [1]: Cytotoxicity against mouse RAW264 cells after 2 hrs by WST reagent-based microplate reader analysis. Type of data set: cell-based. Particulars: raw264, 2 h.
Data set [2] is described as follows: Inhibition of LPS-induced NF-kappaB activation in human 293T cells incubated for 30 mins followed by treated with LPS for 6 hrs by dual-luciferase reporter assay. Type of data set: cell-based. Particulars: HEK-293T. On the technique in general: In a reporter assay the amount or activity of a reporter protein is the signal.
A further data set concerns HEK-293T. Kind of data set: Cytotoxicity against human 293T cells assessed as cell viability by dual-luciferase reporter assay. Format: cell-based.

Molecules are shown by their SMILES. The source made the active and inactive calls. The calls are words filed in the database; no cut-off is given here.

Broadly, the IC50 is the point on the concentration scale where inhibition reaches its midpoint. For `C=C1C(=O)[C@@]23[C@@H]4OC(C)(C)O[C@@H]2C[C@@H]2[C@@](C)(COC(C)=O)CCC[C@@]2(C)[C@@H]3C[C@H](OC(C)=O)[C@@H]14`, the inhibition result in the data set on RAW264 is “Active”. The Activity result in data set [1] is recorded as “Toxic”. Also, the IC50 in data set [2] is 2.01 µM; in the data set on HEK-293T, 1.8 µM.

Regarding `C=C1C(=O)[C@@]23[C@H](O)C[C@@H]4[C@@](C)(COC(C)=O)CCC[C@@]4(C)[C@@H]2C[C@H](O)[C@@H]1[C@H]3O` [ALBOPILOSIN A], the inhibition result in the data set with RAW264 was “Active”. Besides, in data set [1], the Activity result is “Toxic”.

With `C=C1C(=O)[C@@]23[C@H](O)C[C@@H]4[C@@](C)(COC(=O)CC)CCC[C@@]4(C)[C@@H]2C[C@H](OC(=O)CC)[C@@H]1[C@H]3O`, the IC50 (in data set [2]; in the data set on HEK-293T) was over 5 µM in each case.

On to `C[C@H]1C(=O)[C@@]23[C@H](O)C[C@@H]4[C@@](C)(CO)CCC[C@@]4(C)[C@@H]2C[C@H](O)[C@@H]1[C@H]3O`, for which the inhibition entry with RAW264 was “Active”. In addition, the Activity result in data set [1] is given as “Toxic”.

For the molecule `C=C1C(=O)[C@@]23[C@H](O)C[C@@H]4[C@@](C)(CO)CCC[C@@]4(C)[C@@H]2C=C[C@@H]1[C@H]3O`, the inhibition result in the data set with RAW264 was “Active”. The Activity entry in data set [1] is “Toxic”.

In the case of `C=C1C(=O)[C@@]23[C@H](O)C[C@@H]4[C@@](C)(CO)CCC[C@@]4(C)[C@@H]2C[C@H](OC(C)=O)[C@@H]1[C@H]3O`, the inhibition entry in the data set on RAW264 was “Active”. Besides, the Activity entry in data set [1] was “Toxic”.

Consider `CC1=C(O)C(=O)C=C2C1=CC=C1[C@@]2(C)CC[C@@]2(C)[C@@H]3C[C@](C)(C(=O)O)CC[C@]3(C)CC[C@]12C` [CELASTROL], for which, in the data set on RAW264, the inhibition result is “Active”. For the same molecule, the Activity entry in data set [1] is “Toxic”. Besides, the results for the IC50 (in data set [2]; in the data set on HEK-293T) were 0.17 µM and 0.67 µM, respectively.

Consider `C=C1C(=O)[C@@]23[C@H](O)C[C@@H]4[C@@](C)(COC(C)=O)CCC[C@@]4(C)[C@@H]2C=C[C@@H]1[C@H]3O`, for which, in the data set on RAW264, the inhibition result was “Active”. Further, the Activity entry in data set [1] is “Toxic”. For the same molecule, the IC50 in data set [2] is 1.47 µM; in the data set with HEK-293T, over 5 µM.

As for `C=C1C(=O)[C@@]23[C@@H]4OC(C)(C)O[C@@H]2C[C@@H]2[C@@](C)(CO)CCC[C@@]2(C)[C@@H]3C[C@H](OC(C)=O)[C@@H]14`, in the data set with RAW264, the inhibition result is “Active”. In addition, the Activity result in data set [1] was “Toxic”. For the same molecule, the IC50 in data set [2] stood at 1.53 µM; in the data set on HEK-293T, 2.39 µM.

Take `C=C1C(=O)[C@@]23[C@@H]4OC(C)(C)O[C@@H]2C[C@@H]2[C@@](C)(CO)CCC[C@@]2(C)[C@@H]3C[C@H](O)[C@@H]14`: the inhibition result in the data set on RAW264 is “Active”. Moreover, the Activity entry in data set [1] is recorded as “Toxic”.

For the molecule `C=C1C(=O)[C@@]23[C@@H]4OC(C)(C)O[C@@H]2C[C@@H]2[C@@](C)(COC(=O)C(F)(F)F)CCC[C@@]2(C)[C@@H]3C[C@H](OC(=O)C(F)(F)F)[C@@H]14`, the inhibition result in the data set with RAW264 is “Active”. For the same molecule, in data set [1], the Activity result is on record as “Toxic”.

Regarding `C=C1C(=O)[C@@]23[C@H](O)C[C@@H]4[C@@](C)(COC(C)=O)CCC[C@@]4(C)[C@@H]2C[C@H](OC(C)=O)[C@@H]1[C@H]3O`, the inhibition entry with RAW264 was “Active”. Moreover, the Activity result in data set [1] is on record as “Toxic”. Besides, the results for the 50% inhibitory concentration (IC50) (in data set [2]; in the data set on HEK-293T) were 2 µM and 2.92 µM, respectively.

With `C=C1C(=O)[C@@]23[C@H](O)C[C@H]4[C@@](C)(CCC[C@]4(C)C(=O)O)[C@@H]2C[C@H](OC(C)=O)[C@@H]1[C@H]3O`, the inhibition entry with RAW264 was “Active”. Besides, the Activity entry in data set [1] is listed as “Toxic”.

For `C=C1C(=O)[C@]23[C@H](O)[C@H]1CC[C@H]2[C@@]12CO[C@]3(O)[C@@H](O)[C@@H]1C(C)(C)CC[C@@H]2O` [ORIDONIN], the results for the half-maximal inhibitory concentration (IC50) (in data set [2]; in the data set on HEK-293T) were 4.44 µM and over 5 µM, respectively.

As to `C=C1C(=O)[C@@]23[C@@H]4OC(C)(C)O[C@@H]2C[C@@H]2[C@@](C)(COC(C)=O)CCC[C@@]2(C)[C@@H]3C[C@H](O)[C@@H]14`, the inhibition entry in the data set with RAW264 was “Active”. Also, in data set [1], the Activity entry was “Toxic”.

Consider `C=C1C(=O)[C@@]23[C@H](O)C[C@@H]4[C@@](C)(COC(=O)CCC)CCC[C@@]4(C)[C@@H]2C[C@H](OC(=O)CCC)[C@@H]1[C@H]3O`, for which the values for the IC50 (in data set [2]; in the data set on HEK-293T) were 2.97 µM and 2.3 µM, respectively.

Turning to `C=C1C(=O)[C@@]23[C@H](O)C[C@@H]4[C@@](C)(CO)CCC[C@@]4(C)[C@@H]2C[C@H](OC(=O)CCC)[C@@H]1[C@H]3O`, the half-maximal inhibitory concentration (IC50) in data set [2] is 1.68 µM; in the data set on HEK-293T, 1.91 µM.

Take `C=C1C(=O)[C@@]23[C@H](O)C[C@H]4[C@@](C)(CCC[C@]4(C)C=O)[C@@H]2C[C@H](OC(C)=O)[C@@H]1[C@H]3O`: the inhibition result in the data set on RAW264 is “Active”. Further, in data set [1], the Activity entry is listed as “Toxic”.

`C=C1C(=O)[C@@]23[C@H](O)C[C@@H]4[C@@](C)(CO)CCC[C@@]4(C)[C@@H]2C[C@H](O)[C@@H]1[C@H]3O` [RABDOKUNMIN C]: the inhibition result in the data set on RAW264 was “Active”. In data set [1], the Activity entry is “Toxic”.

Regarding `C=C1C(=O)[C@@]23[C@@H]4OC(C)(C)O[C@@H]2C[C@@H]2[C@@](C)(CO)CCC[C@@]2(C)[C@@H]3C=C[C@@H]14`, the inhibition entry in the data set with RAW264 was “Active”. Also, the Activity result in data set [1] is on record as “Toxic”.
